Measurements taken from patent publication US20210244686A1, “Novel Systems And Methods For The Therapeutic Use of Cannabinoids or Cannabinoid Analogs to Increase The Lipid Order of Cholesterol Containing Cell Membranes” (The Regents of the University of Colorado a body corporate, priority 2018, published 2021).

Assays:
[1] = test system: SK-N-BE(2) cells; experiment: Fluorometric total cellular cholesterol (Amplex Red Cholesterol Assay Kit); assay type: cell-based, human; settings: orthogonal experiment
From the text: FIG. 11A-C. (A) Plots of 13C labelled (left) and total+labeled cholesterol (right) abundances measured in methanol extracts from vehicle/CBD treated cells. (B) A similar analysis for cholesterol precursors. (C) Fluorometric measurement of total cellular cholesterol from methanol extracts of SK-N-BE(2) cells using the Amplex Red Cholesterol Assay Kit.
These findings raise the question of whether CBD treatment leads to alterations in lipid and cholesterol metabolism (the latter pathway depicted in FIG. 3A). The present inventors used mass spectrometry-based lipidomics, a subset of metabolomics, to quantify the effect of CBD on the fluxes of key lipids and sterols. Vehicle and CBD exposed cells were fed ^13C labeled glucose for 24 hours and harvested using methanol extraction and mass spectrometry analysis. Cholesterol biosynthesis was analyzed by determining the level of incorporation of ^13C into biosynthetic intermediates. […] The effect of CBD on total cellular cholesterol was confirmed using a fluorogenic assay for cholesterol in an orthogonal experiment (FIG. 11B).

[2] = test system: SK-N-BE(2) cells; experiment: Live cell confocal microscopy of lipid droplets (NBD-cholesterol, nile red); assay type: cell-based, human; settings: CBD 20 μM, 24 hrs
From the text: Thus, the present inventors found multiple lines of evidence consistent with activation of cholesterol esterification in the CBD response. To further support the claim that CBD elicits cholesterol storage, the present inventors used live cell confocal microscopy of SK-N-BE(2) cells stained with both fluorescent cholesterol (22-NBD-Cholesterol) and the lipid droplet dye nile red (FIG. 4E) to quantify the number and size of lipid droplets. […] Altogether, these combined experiments highlight that the CBD response in cells includes activation of cholesterol esterification and storage.
(§1) SK-N-BE(2) cells were seeded into fibronectin coated glass bottom 96 well plates (Matriplate) at a cell density of 40,000 cells/well using low background imaging media (FluoroBrite DMEM with all supplements described, above). At the time of seeding, nile red (ThermoFisher) was added at a final concentration of 100 ng/mL and NBD-cholesterol (ThermoFisher) was added at a final concentration of 10 μg/mL. […] Lipid droplets and their sizes were detected and quantified using the ImageJ Find Particles Function, and data was subsequently processed using Microsoft Excel. Error depicted represents the standard deviation calculated from three biological replicates. […]

[3] = test system: HaCaT cells; experiment: Live cell microscopy apoptosis assay (caspase 3/7 dye); settings: increasing 25-hydroxy cholesterol, constant CBD
Description: (§2) To accurately measure cellular apoptosis over time, the present inventors performed live cell microscopy experiments with cells loaded with both DNA and caspase 3/7 dyes, which enables continuous and precise quantification of apoptosis at the single cell level.
(§3) Cell viability for SK-N-BE(2) cells was conducted using a fluorometric cell viability assay using Resazurin (PromoKine) according to the manufacturer's instructions. […] Dyes were added at the time of seeding, 18-24 hours prior to performing experiments.
(§4) Experiments were performed using an ImageXpress MicroXL microscope and a 10× objective, where images were acquired for each well at the indicated time-points using DAPI and FITC filter sets. […] Percent apoptotic cells was calculated from the sum of apoptotic cell pixels divided by the sum of all cell pixels for each field of view.

[4] = test system: SK-N-BE(2) cells; experiment: as above
Description: as §2, §3, §4

[5] = test system: SK-N-BE(2) cells; experiment: Live cell confocal microscopy of NBD-cholesterol and lysotracker; assay type: cell-based, human; settings: after 24 hours, only with NPC1 inhibitor U18666A and CBD 20 μM
From the text: One possible explanation for why CBD sensitizes cells to inhibitors of cholesterol trafficking and storage is that CBD increases the flux of cholesterol from the plasma membrane to the lysosome-ER transport pathway. When this flux is activated and hydroxy cholesterol is supplied in excess, the inability to efficiently store cholesterol may cause subcellular accumulation of cholesterol/hydroxycholesterol in organelles that normally maintain low cholesterol levels. To test this hypothesis, the inventor's repeated the live cell confocal microscopy experiments with SK-N-BE(2) cells stained with fluorescent cholesterol (NBD-cholesterol) and the lysosome dye lysotracker.
as §1

[6] = test system: SK-N-BE(2) and HaCaT keratinocyte cell lines; experiment: FRET biosensor profiling of CBD response; assay type: cell-based, human; settings: CBD dose and time survey
Description: To efficiently design the multi-omics experiments, the present inventors exposed the neuroblastoma cell line SK-N-BE(2) to escalating doses of CBD at 24, 48, and 72 hours and determined the EC50 of toxicity of CBD to be greatest at 72 hours and at an approximate concentration of 20 μM (FIG. 1 B). To maximize the efficient use of the inventor's multi-omic resources, a large dose and time survey of the CBD response was conducted in a panel of transgenic SK-N-BE(2) and HaCaT keratinocyte cell lines, each expressing a genetically encoded förster resonance energy transfer (FRET) biosensor gene capable of reporting the activity of a cellular effector molecule/activity including, but not limited to: AMP kinase activity, Erk kinase activity, cytosolic ATP, glucose, lactate, pyruvate & glutamine, Ca^2+ in the ER & Cytosol, mTor kinase activity & TACE protease activity. […] The biosensor activity profiles as a function of CBD dose and time (FIGS. 9A-C) were analyzed for the EC50 of each biosensor activity at each time (FIG. 10). The result of these efforts outlined that the most robust dose of CBD for use in multi-omic experiments is 20 μM and that the kinetic profile of the CBD response begins in hours and persists for days.
Stable transgenic biosensor expressing cell lines were made in HaCaT and SK-N-BE(2) cells. […]

## C=C(C)[C@@H]1CCC(C)=C[C@H]1c1c(O)cc(CCCCC)cc1O [CBD, cannabidiol]
[1]
  effect on total cellular cholesterol, fluorogenic assay: confirmed
[2]
  average abundance of lipid droplets: increases
  lipid droplet size: does not affect
[3]
  sensitivity of CBD exposed cells to 25-hydroxy cholesterol induced apoptosis, relative to SK-N-BE(2): more dramatically observed
[4]; DHA 75 μM with MBCD 300 μM or CBD 6.25 μM
  effect on DHA induced apoptosis: completely cancel the apoptotic effects
[4]; increasing 25-hydroxy cholesterol, constant CBD
  sensitivity of CBD exposed cells to 25-hydroxy cholesterol induced apoptosis: clear dose dependent sensitivity
[5]
  fluorescent cholesterol in lysosomes: accumulates in labeled lysosomes
[6]
  biosensor activities across panel: causes modulation of all biochemical pathways that were probed
